Assay results reported in ChEMBL document CHEMBL1128206, “Substituted 2-azaspiro[5.3]nonan-1-ones as potent cholesterol absorption inhibitors: defining a binding conformation for SCH 48461” (1995).

Key:
Cricetinae gen. sp. [1] = experiment: Effective concentration was evaluated when liver cholesterol ester level reduction was 87%; type: functional, Cricetulus griseus
Cricetinae gen. sp. [2] = experiment: Effective concentration was evaluated when liver cholesterol ester level reduction was 17%; type: functional, Cricetulus griseus
[3] = Compound was evaluated in vivo for the reduction of liver cholesterol ester level at the rate 5 mpk; type: functional
[4] = Compound was evaluated in vivo for the reduction of liver cholesterol ester level at the rate 50 mpk; type: functional
[5] = Compound was evaluated in vivo for the reduction of liver cholesterol ester level at the rate 10 mpk; type: functional

Row | SMILES | L/CE [3] [%] | L/CE [4] [%] | L/CE [5] [%] | also measured
1 | COc1ccc([C@@H]2N(c3ccc(OC)cc3)C(=O)C23CCC(c2ccccc2)CC3)cc1 (stereo partly drawn) | – | – | – | ED50 (Cricetinae gen. sp. [1]): > 50 mg/kg; ED50 (Cricetinae gen. sp. [2]): 3 mg/kg
2 | COc1ccc([C@H]2[C@H](CCCc3ccccc3)C(=O)N2c2ccc(OC)cc2)cc1 | 0 | – | – | –
3 | COc1ccc([C@@H]2[C@H](CCCc3ccccc3)C(=O)N2c2ccc(OC)cc2)cc1 | – | 0 | 69 | –
4 | COc1ccc([C@H]2[C@@H](CCCc3ccccc3)C(=O)N2c2ccc(OC)cc2)cc1 | – | – | 0 | –
5 | COc1ccc([C@@H]2[C@@H](CCCc3ccccc3)C(=O)N2c2ccc(OC)cc2)cc1 [SCH-48461] | 66 | 0 | – | –
